Common to all, as to assay type: physicochemical
Data set [1] in a line: Salt screening: XRPD of wet cake, after drying under vacuum at 50° C., after exposure to 97% relative humidity. The conditions noted are these: for stability of salt solid form to humidification: 97% (>95%) relative humidity; for stability of salt solid form to humidification / stability of salt solid form to drying: XRPD; for stability of salt solid form to drying: vacuum at 50° C.; for XRPD Pattern Dry / XRPD Pattern Humid: salt screening; for XRPD Pattern Dry: after drying; for XRPD Pattern Humid: after humidity exposure. The method, then: Stock solutions of counter-ion were prepared in EtOH, MeOH, or EtOAc, depending on solubility. […] The solvent was allowed to evaporate at room temperature over the weekend and then placed at 50° C. under vacuum for 3 hours to remove any remaining solvent. Approximately 25 volumes solvent (0.6 mL) was added to each vial for screening. The three solvents selected were EtOH, EtOAc, and IPA:water (9:1 vol). […] XRPD analysis was done in three stages. XRPD of the wet cake was done for all samples. Unique solids were then left on XRPD plates and dried under vacuum at 50° C. XRPD of unique dry solids was then done. […] The humid environment was generated by placing a beaker of saturated potassium sulfate in water in a sealed container. All XRPD patterns were compared to counter ion XRPD patterns and known free base patterns. Where solids were not of sufficient quantity to isolate, the solvent was evaporated at room temperature, the material dried at 50° C. under active vacuum for 3 hours, and then reslurried at room temperature in either MtBE or IPAc overnight after heating to 45° C. for 30 minutes.

Data set [2] in a line: Humidity exposure, 75% relative humidity at 40° C. for one week, XRPD.
Data set [3] can be described thus: One week (7 days) slurry stability by XRPD and HPLC.

Structures can show the parent of a compound that is named as a salt.

Data on 26 molecules can be found in patent US12448366B2, “Solid forms of pralsetinib” (Rigel Pharmaceuticals, Inc., priority 2020, dated 2025).

On to `CO[C@]1(C(=O)N[C@@H](C)c2ccc(-n3cc(F)cn3)nc2)CC[C@H](c2nc(C)cc(Nc3cc(C)[nH]n3)n2)CC1` (single isomer, unassigned) [Pattern 12-G+2 peaks, pralsetinib], for which, in data set [1], the “stability of salt solid form to humidification” value (“stability … to humidification” for short) is on record as “reverted to Pattern 12-G” and the “stability of salt solid form to drying” value is on record as “converted to Pattern 12-H”.

`CO[C@]1(C(=O)N[C@@H](C)c2ccc(-n3cc(F)cn3)nc2)CC[C@H](c2nc(C)cc(Nc3cc(C)[nH]n3)n2)CC1` [Fumarate, pralsetinib]: the “stability of salt solid form to drying” value in data set [1] is “changed”.

As for `COC1(C(=O)NC(C)c2ccc(-n3cc(F)cn3)nc2)CCC(c2nc(C)cc(Nc3cc(C)[nH]n3)n2)CC1.Cl` (stereo not shown) [HCl 5-B], the “Stability 40° C./75% RH” value in data set [2] (XRPD pattern after exposure) was “Stable”. The “Stability 7-day slurry” value in data set [3] is “Stable”.

For `CO[C@]1(C(=O)N[C@@H](C)c2ccc(-n3cc(F)cn3)nc2)CC[C@@H](c2nc(C)cc(Nc3cc(C)[nH]n3)n2)CC1.Cl` [HCl], the “XRPD Pattern Dry” value in data set [1] (solvent EtOAc) is given as 5-C + broad. For the same molecule, the “XRPD Pattern Humid” value in data set [1] (solvent EtOAc) and in data set [1] (solvent IPA:water (9:1 vol)) was 5-C + trace each time.

With `CS(=O)(=O)O` [MSA], the “XRPD Pattern Dry” value in data set [1] (solvent IPA:water (9:1 vol)) is reported as 2-B + extra.

In the case of `CO[C@]1(C(=O)N[C@@H](C)c2ccc(-n3cc(F)cn3)nc2)CC[C@H](c2nc(C)cc(Nc3cc(C)[nH]n3)n2)CC1` [Pyruvate, pralsetinib], in data set [1], the “stability … to humidification” value was “changed form”.

For the molecule `CO[C@]1(C(=O)N[C@@H](C)c2ccc(-n3cc(F)cn3)nc2)CC[C@H](c2nc(C)cc(Nc3cc(C)[nH]n3)n2)CC1` [Solid Form 1-A, pralsetinib], the “stability … to humidification” value in data set [1] (listed as solid form 1-A) was “peak shift”.

Turning to `CO[C@]1(C(=O)N[C@@H](C)c2ccc(-n3cc(F)cn3)nc2)CC[C@H](c2nc(C)cc(Nc3cc(C)[nH]n3)n2)CC1` [Solid Form 1-B, pralsetinib], in data set [1] (listed as solid form 1-B), the “stability … to humidification” value is on record as “converted to Pattern 1-C”.

For the molecule `CO[C@]1(C(=O)N[C@@H](C)c2ccc(-n3cc(F)cn3)nc2)CC[C@H](c2nc(C)cc(Nc3cc(C)[nH]n3)n2)CC1` [Solid Form 4-A, pralsetinib], in data set [1] (listed as Pattern 4-A), the “stability … to humidification” value was “stable” and the “stability of salt solid form to drying” value was “Pattern 4-C”.

Regarding `CO[C@]1(C(=O)N[C@@H](C)c2ccc(-n3cc(F)cn3)nc2)CC[C@H](c2nc(C)cc(Nc3cc(C)[nH]n3)n2)CC1` [Solid Form 4-B, pralsetinib], the “stability … to humidification” value in data set [1] (listed as Pattern 4-B) was “stable”.

Take `CO[C@]1(C(=O)N[C@@H](C)c2ccc(-n3cc(F)cn3)nc2)CC[C@H](c2nc(C)cc(Nc3cc(C)[nH]n3)n2)CC1` [Solid Form 5-A, pralsetinib]: the “stability … to humidification” value in data set [1] (listed as Form 5-A), in data set [1] (listed as Pattern 5-A) and in data set [1] (listed as hydrochloride (5-A)) was “deliquesced” in each case. Also, the “stability of salt solid form to drying” value in data set [1] (listed as Form 5-A) and in data set [1] (listed as Pattern 5-A) was “stable” each time.

With `CO[C@]1(C(=O)N[C@@H](C)c2ccc(-n3cc(F)cn3)nc2)CC[C@H](c2nc(C)cc(Nc3cc(C)[nH]n3)n2)CC1` [Solid Form 5-B, pralsetinib], the “stability slurrying 7 days in EtOAc” value in data set [3] (EtOAc, XRPD and HPLC, listed as Pattern 5-B) is “stable”. In addition, in data set [3] (EtOH, XRPD and HPLC, listed as Pattern 5-B), the “stability slurrying 7 days in EtOH” value is “stable”. Besides, in data set [3] (EtOH:water (95:5 vol), XRPD and HPLC, listed as Pattern 5-B), the “stability slurrying 7 days in EtOH:water (95:5 vol)” value was “stable”. In addition, the “stability … to humidification” value in data set [1] (listed as Pattern 5-B) is given as “stable”. The entries for the “stability of salt solid form to drying” value in data set [1] (listed as Form 5-B) and in data set [1] (listed as Pattern 5-B) were “converted to Form 5-C” and “dried to Pattern 5-C”, respectively.

For `CO[C@]1(C(=O)N[C@@H](C)c2ccc(-n3cc(F)cn3)nc2)CC[C@H](c2nc(C)cc(Nc3cc(C)[nH]n3)n2)CC1` [Solid Form 5-C, pralsetinib], the “stability … to humidification” value in data set [1] (listed as Form 5-C) was “stable”.

With `CO[C@]1(C(=O)N[C@@H](C)c2ccc(-n3cc(F)cn3)nc2)CC[C@H](c2nc(C)cc(Nc3cc(C)[nH]n3)n2)CC1` [Solid Form 6-A, pralsetinib], the “stability … to humidification” value in data set [1] (listed as Pattern 6-A) was “became amorphous with one peak”.

For `CO[C@]1(C(=O)N[C@@H](C)c2ccc(-n3cc(F)cn3)nc2)CC[C@H](c2nc(C)cc(Nc3cc(C)[nH]n3)n2)CC1` [Solid Form 8-A, pralsetinib], the “stability … to humidification” value in data set [1] (listed as Pattern 8-A) and in data set [1] (listed as maleate 8-A) was “stable” each time. Besides, the “stability of salt solid form to drying” value in data set [1] (listed as Pattern 8-A) and in data set [1] (listed as maleate 8-A) was “stable” each time.

For the molecule `CO[C@]1(C(=O)N[C@@H](C)c2ccc(-n3cc(F)cn3)nc2)CC[C@H](c2nc(C)cc(Nc3cc(C)[nH]n3)n2)CC1` [Solid Form 9-A, pralsetinib], in data set [1] (listed as 9-A), the “stability … to humidification” value is on record as “stable” and the “stability of salt solid form to drying” value is given as “stable”. In data set [1] (listed as oxalate 9-A), the “stability … to humidification” value was “stable” and the “stability of salt solid form to drying” value is given as “stable”.

Regarding `CO[C@]1(C(=O)N[C@@H](C)c2ccc(-n3cc(F)cn3)nc2)CC[C@H](c2nc(C)cc(Nc3cc(C)[nH]n3)n2)CC1` [Solid Form 10-A+B, pralsetinib], in data set [1] (listed as 10-A+B), the “stability … to humidification” value is reported as “stable” and the “stability of salt solid form to drying” value was “stable”.

On to `CO[C@]1(C(=O)N[C@@H](C)c2ccc(-n3cc(F)cn3)nc2)CC[C@H](c2nc(C)cc(Nc3cc(C)[nH]n3)n2)CC1` [Solid Form 12-B, pralsetinib], for which the “stability of salt solid form to drying” value in data set [1] (listed as Pattern 12-B) was “stable”.

For the molecule `CO[C@]1(C(=O)N[C@@H](C)c2ccc(-n3cc(F)cn3)nc2)CC[C@H](c2nc(C)cc(Nc3cc(C)[nH]n3)n2)CC1` [Solid Form 12-C, pralsetinib], in data set [1] (listed as Pattern 12-C), the “stability of salt solid form to drying” value is “stable”.

As for `CO[C@]1(C(=O)N[C@@H](C)c2ccc(-n3cc(F)cn3)nc2)CC[C@H](c2nc(C)cc(Nc3cc(C)[nH]n3)n2)CC1` [Solid Form 12-D, pralsetinib], the “stability of salt solid form to drying” value in data set [1] (listed as Pattern 12-D) was “Pattern 12-E”.

For the molecule `CO[C@]1(C(=O)N[C@@H](C)c2ccc(-n3cc(F)cn3)nc2)CC[C@H](c2nc(C)cc(Nc3cc(C)[nH]n3)n2)CC1` [citrate, pralsetinib], the “stability … to humidification” value in data set [1] and in data set [1] (listed as Citrate) was “deliquesced” each time.

As to `CO[C@]1(C(=O)N[C@@H](C)c2ccc(-n3cc(F)cn3)nc2)CC[C@H](c2nc(C)cc(Nc3cc(C)[nH]n3)n2)CC1` [gentisate, pralsetinib], in data set [1], the “stability … to humidification” value is given as “deliquesced”.

Consider `CO[C@]1(C(=O)N[C@@H](C)c2ccc(-n3cc(F)cn3)nc2)CC[C@H](c2nc(C)cc(Nc3cc(C)[nH]n3)n2)CC1` [hydrochloride, pralsetinib], for which the “stability on exposure to 75% relative humidity at 40° C.” value in data set [2] (one week / 7 days, XRPD, listed as HCl salt) is on record as “stable”. Moreover, in data set [1], the “stability … to humidification” value is “deliquesced”.

Take `CO[C@]1(C(=O)N[C@@H](C)c2ccc(-n3cc(F)cn3)nc2)CC[C@H](c2nc(C)cc(Nc3cc(C)[nH]n3)n2)CC1` [saccharine salt, pralsetinib]: the “stability … to humidification” value in data set [1] is “changed form”.

Turning to `CO[C@]1(C(=O)N[C@@H](C)c2ccc(-n3cc(F)cn3)nc2)CC[C@H](c2nc(C)cc(Nc3cc(C)[nH]n3)n2)CC1` [sulfate, pralsetinib], the “stability of salt solid form to drying” value in data set [1] is “changed”.

As to `CO[C@]1(C(=O)N[C@@H](C)c2ccc(-n3cc(F)cn3)nc2)CC[C@H](c2nc(C)cc(Nc3cc(C)[nH]n3)n2)CC1` [sulfates generated from the 1.1 eq. experiments] [pralsetinib], in data set [1], the “stability … to humidification” value is “changed form”.
